Assay results taken from publication PMC3433420 (PLoS ONE, 2012).
Residues, ends and D or L forms follow the SMILES beside them.

Legend:
PLCG1-C SH2 domain [1] = target: T1, PLCG1-C SH2 domain (Homo sapiens, UniProt P19174); assay: biochemical; type: binding; settings: FP, PLCG1-C; mean; NA = no interaction detected
T1 construct: The 6X His-tagged SH2 domain proteins used in the assay, PLCG1-C, SHC4, VAV2; thioredoxin; made in house; host or cells: E. coli BL21(DE3)pLysS
T1 sequence (P19174 668-756 limits assumed): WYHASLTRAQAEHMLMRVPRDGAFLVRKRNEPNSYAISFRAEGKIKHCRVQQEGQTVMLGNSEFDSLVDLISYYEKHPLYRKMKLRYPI

PIK3R3-C SH2 domain [2] = target: T2, PIK3R3-C SH2 domain (Homo sapiens, UniProt Q92569); assay: Surface plasmon resonance (Biacore 3000); type: binding; settings: SPR, NA = no interaction detected
T2 construct: thioredoxin; made in house; host or cells: E. coli BL21(DE3)pLysS
Description: (§1) All SPR experiments were performed using Biacore 3000 (GE HealthCare, Piscataway, NJ) instrumentation. 6X His-tagged SH2 domain proteins were immobilized on a nitriloacetic acid (NTA) sensor chip (GE HealthCare, Piscataway, NJ) charged with Ni^2+ ions. Dye-free ErbB family peptides were applied to the sensor chip in a single flow cell in solution phase (while the other flow cell was used as a reference control) and binding events were measured under equilibrium conditions. FP false positive [drawing 7] (FPR), false discovery [drawing 8] (FDR), and false negative [drawing 9] (FNR) rates were calculated by defining true positives (TP) as interactions detected by both FP and SPR, true negatives (TN) as interactions detected by neither FP nor SPR; false positives as interactions identified by FP but not validated by SPR; and false negatives (FN) as interactions missed by FP but detected by SPR. Additional details for all methods are provided in the Supplementary Methods.
(§2) A randomly selected set of 12 recombinant SH2 domain proteins and unlabeled (rhodamine dye free) peptides (9 ErbB, 2 GAB1, 2 KIT, 2 MET) were generated for the surface plasmon resonance (SPR) validation study. The 6X His-tagged SH2 domain proteins used in the assay, PLCG1-C, SHC4, VAV2, TNS3, PIK3R3-C, SYK-C, PIK3R1-N, SUPT6H, CRKL, TEC, SHB, and SHC3 were produced and purified as previously described (see “SH2 and PTB domain proteins” section and Jones et al., 2006). Fresh protein stocks were generated so as to avoid bias incurred from proteins previously used in the FP assays. 13-mer peptides corresponding to ErbB1 pY801, ErbB1 pY900, ErbB1 pY978, ErbB1 pY1069, ErbB2 pY685, ErbB pY803, ErbB3 pY912, ErbB4 pY833, ErbB4 pY906, GAB1 pY183, GAB1 pY472, KIT pY570, KIT pY936, MET pY1093 and MET pY1313, were synthesized successfully for the assay using previously described approaches (see “FP competitor peptide synthesis” section). For SPR detection via the Biacore 3000 (GE HealthCare, Piscataway, NJ), His-tagged SH2 domains were immobilized on Biacore NTA sensor chips (GE HealthCare, Piscataway, NJ) pre-charged with Ni^2+ ions in one flow cell while the second served as a negative control reference cell. Peptides were introduced in solution phase to both cells and relative response units (RUs) were recorded from output sensograms. Nine concentrations of peptide and a buffer control, in duplicate, were used to determine KDs using the equilibrium method (best-fit simultaneous modeling for peptide association and disassociation curves).

PLCG1-C SH2 domain [3] = target: T1, PLCG1-C SH2 domain; assay: Surface plasmon resonance (Biacore 3000); type: binding; settings: SPR, NA = no interaction detected
Description: as §1, §2

PIK3R3-C SH2 domain [4] = target: T2, PIK3R3-C SH2 domain; assay: biochemical; type: binding; settings: FP, PIK3R3-C; mean; NA = no interaction detected
TNS1 SH2 domain = target: T3, TNS1 SH2 domain (Homo sapiens, UniProt Q9HBL0); assay: FP saturation binding assay; settings: Tensin family SH2 domains
T3 sequence (Q9HBL0 1567-1676 limits assumed): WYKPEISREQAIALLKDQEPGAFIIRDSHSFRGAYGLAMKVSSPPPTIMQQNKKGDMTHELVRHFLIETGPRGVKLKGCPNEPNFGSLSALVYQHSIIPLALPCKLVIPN

TENC1 SH2 domain = assay: FP saturation binding assay; settings: Tensin family SH2 domains
TNS3 SH2 domain = target: T4, TNS3 SH2 domain (Homo sapiens, UniProt Q68CZ2); assay: FP saturation binding assay; settings: FP saturation assay; Tensin family SH2 domains
T4 sequence (Q68CZ2 1172-1282 limits assumed): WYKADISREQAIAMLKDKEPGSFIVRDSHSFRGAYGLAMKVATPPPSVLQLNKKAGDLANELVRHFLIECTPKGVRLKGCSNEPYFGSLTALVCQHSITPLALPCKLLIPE

[5] = test system: 93 human SH2 domains and 2 phosphotyrosine binding (PTB) domains; assay: FP saturation binding assay, whole domain panel (protein named per line or not at all)
Description: (See Figure 1A) Rhodamine-labeled peptides were dissolved in assay buffer (20 mM HEPES, 100 mM KCl, 0.1% Tween-20, 5 mM DTT, pH 7.8), diluted to a concentration of 20 nM, and plated into black 384-well plates (Corning, Corning, NY) at 5 µL/well using a Perkin Elmer EP3 pipetting workstation (V&P Scientific, Inc., San Diego, CA). SH2, PTB, and thioredoxin control proteins were plated into the first column of 2 mL 96-well plates (Corning) at a concentration of 20 µM and serially diluted 1∶2 into freezing buffer (300 mM NaCl, 50 mM Na2PO4, pH 8, 20% glycerol v/v) eleven times using a Tecan Freedom EVO 100 workstation (Tecan, Männedorf, Switzerland). For the interaction assay, 5 µL of each of the twelve protein concentrations was added to the peptide-containing 384-well plates via the EP3 resulting in a protein dilution range of 0.002–10 µM and a final volume of 10 µL; peptide concentration was fixed at 10 nM. Peptide/protein samples were incubated for 20 minutes at room temperature in the dark and fluorescence polarization (FP) was measured in an Analyst GT multimode reader (Molecular Devices, Sunnyvale, CA) with excitation and emission wavelengths of 530 nm and 555 nm, respectively. Experimental values were output as millipolarization (mP) units and imported into MATLAB (The MathWorks, Inc., Natick, MA) in which equation (1) was used to determine dissociation constants (KDs) for each protein/peptide pairing by least squares nonlinear regression. [drawing 1] (1)
To scale up the number of interaction measurements while minimizing variation introduced by human intervention, we utilized an automated robotic platform (Figure 1A; see experimental procedures and Supplementary Methods) to transfer, incubate, and measure the fluorescence polarization (FP) induced from interactions of a titration series of SH2 domains with synthetic rhodamine-labeled ErbB phosphopeptides. Experimental values were output as millipolarization (mP) units and equation (1) was used to fit apparent midpoint dissociation constants (KDs) for each protein/peptide pair using non-linear regression (see experimental procedures).
For this interaction analysis, we synthesized and queried the interaction of phosphopeptides corresponding to 89 of 92 ErbB family intracellular tyrosines with 93 SH2 domains. Because nine peptide sequences share 100% identity between the receptors in the 4 to 7 amino acids C-terminal to the phosphorylated tyrosine, our peptide set consisted of 81 phosphopeptides corresponding to the 89 unique tyrosine containing sequences (Table S2). This peptide set represents a 50% increase over the three PM studies performed to date. We were therefore able to obtain a more systematic and unbiased view of the relative SH2 domain recruitment potential of each receptor. Although most ErbB receptor auto-phosphorylation sites have been detected frequently by mass spectrometry because of their high relative modification stoichiometry, non-auto-phosphorylation sites have been reported less frequently in the literature (Table S3). We reasoned that many physiologically relevant and uncharacterized ErbB tyrosines of low phosphorylation stoichiometry may exist and that our comprehensive interaction analysis might implicate their importance in mediating physiological interactions. We tested the majority of interactions (7099/8160 (87.0%); Figure S3) three or more times and reported standard error for all interactions that were detected in at least three FP runs (Table S4). […] Analysis of this polarization data may be useful for inferring how SH2 proteins bind to different peptide sequences. Larger proteins and proteins binding closer to the N-terminal rhodamine tag of a given peptide would be expected to induce higher maximal polarization (the calculated maximal polarization value at infinite protein concentration) than proteins binding farther from the tag. In addition to phosphopeptides, we queried a representative set of 27 non-phosphopeptides against the entire domain set. […]

SH2 and PTB domains = settings: protein SYK-N; ref Kaushansky et al. Mol Biosys 2008; cited from earlier work
From the text: Supplement pone.0044471.s022.xlsx, sheet "Most recent PM interactions" | column: Kd || Supplement pone.0044471.s022.xlsx, sheet "All original PM interactions" | column: Kd

affinity of recruitment of TNS1 (TNS1 SH2 domain) | affinity of recruitment of TENC1 (TENC1 SH2 domain) | affinity of recruitment of TNS3 (TNS3 SH2 domain) | Molecule | Kd (PLCG1-C SH2 domain [1]) [µM] | Kd (PLCG1-C SH2 domain [3]) [µM] | further results
– | – | – | CC(C)C[C@H](NC(=O)[C@H](CCC(=O)O)NC(=O)[C@H](Cc1c[nH]c2ccccc12)NC(=O)[C@@H](NC(=O)[C@@H](NC(=O)[C@@H](NC(=O)CNC(=O)[C@H](Cc1ccc(OP(=O)(O)O)cc1)NC(=O)[C@H](CO)NC(=O)[C@H](Cc1c[nH]c2ccccc12)NC(=O)[C@@H](NC(=O)[C@@H](N)CC(=O)O)C(C)C)C(C)C)[C@@H](C)O)C(C)C)C(=O)N[C@@H](CC(=O)O)C(=O)O [ErbB1 900] | 15.5 | 10.9 | Kd (PIK3R3-C SH2 domain [2]): 1.47 µM; Kd (PIK3R3-C SH2 domain [4]): 5.83 µM
– | – | – | CC[C@H](C)[C@H](NC(=O)[C@@H](NC(=O)[C@H](CC(C)C)NC(=O)[C@H](Cc1ccc(OP(=O)(O)O)cc1)NC(=O)[C@H](CCCNC(=N)N)NC(=O)[C@H](CCC(N)=O)NC(=O)[C@@H]1CCCN1C(=O)[C@@H](N)CC(=O)O)C(C)C)C(=O)N[C@@H](CCC(N)=O)C(=O)NCC(=O)N[C@@H](CC(=O)O)C(=O)N[C@@H](CCC(=O)O)C(=O)N[C@@H](CC(=O)O)C(=O)O [ErbB1 978] (HELM PEPTIDE1{D.P.Q.R.[O=C([C@H](Cc1ccc(OP(=O)(O)O)cc1)N[*:1])[*:2]].L.V.I.Q.G.D.E.D}$$$$V2.0) | 1.37 | 0.43 | –
– | – | – | CSCC[C@H](NC(=O)CNC(=O)[C@@H](N)CCCCN)C(=O)N[C@@H](CCSC)C(=O)N[C@@H](Cc1ccc(OP(=O)(O)O)cc1)C(=O)N[C@@H](CC(C)C)C(=O)N[C@@H](CCC(=O)O)C(=O)N[C@@H](CCC(=O)O)C(=O)N[C@@H](CCCNC(=N)N)C(=O)N[C@@H](CCCNC(=N)N)C(=O)N[C@@H](CC(C)C)C(=O)N[C@H](C(=O)N[C@@H](CC(=O)O)C(=O)O)C(C)C [ErbB4 833] (HELM PEPTIDE1{K.G.M.M.[O=C([C@H](Cc1ccc(OP(=O)(O)O)cc1)N[*:1])[*:2]].L.E.E.R.R.L.V.D}$$$$V2.0) | 4.73 | 3.46 | –
relatively high affinity | relatively high affinity | relatively high affinity | AKGMpYYLEEHGMd [ErbB3 pY823, N-terminally rhodamine-labeled 13-mer phosphopeptide] | – | – | interaction with the SH2/PTB domain panel ([5]; KD <= 20 µM counted as interaction): reproducibly interacted at high affinity with many SH2 domains; SH2 domains found to interact ([5]; high-confidence interactions (Table S11, Figure S14)): interacted with Src kinase and tensin family SH2 domains
relatively high affinity | relatively high affinity | relatively high affinity | CLLDpYVREHKDNd [ErbB1 pY801] | – | – | Kd (SH2 and PTB domains): 0.56 µM
